From US9328117B2, “Bromodomain inhibitors and uses thereof” (Constellation Pharmaceuticals, Inc., priority 2011, dated 2016)

Assays:
[1] = tested on: MYC mRNA in MV4:11 (AML) cells; test: cMyc RNA quantification assay (QuantiGene), MV4:11; type: cell-based; settings: Homo sapiens; MV4-11 cells, 4 h
Method: (§1) B. cMyc RNA quantification assay (QuantiGene® Assay)
(§2) MV4:11 (AML) or Raji (Burkitt lymphoma) cells were seeded in a 96-well plate and incubated in the presence of various concentrations of compounds for 4 h. Relative mRNA levels were quantitated by using QuantiGene 2.0 assay (Affymetrix) according to the manufacturer's recommendation. Signals were detected by using an Envision plate reader (Perkin-Elmer). Biological duplicates were averaged and normalized to vehicle (DMSO) control to calculate percent MYC mRNA levels.

BRD4(BD1) = target: T1, BRD4(BD1) (Homo sapiens, UniProt O60885); test: BRD4 AlphaLisa binding assay; settings: BRD4(BD1) 30 nM, biotinylated H4-tetraacetyl peptide 200 nM
T1 construct: His; made in house
Method: A. IC50 Measurements for Inhibitors Using BRD4 AlphaLisa Binding Assay
His/Flag epitope tagged BRD4 BD142-168 was cloned, expressed and purified to homogeneity. BRD4 binding and inhibition was assessed by monitoring the engagement of biotinylated H4-tetraacetyl peptide (Millipore #12-379) with the target using the AlphaLisa technology (Perkin-Elmer). Specifically, in a 384 well ProxiPlate BRD4(BD1) (30 nM final) was combined with peptide (200 nM final) in 40 mM HEPES (pH 7.0), 40 mM NaCl, 1 mM DTT, 0.01% (w/v) BSA, and 0.008% (w/v) Brij-35 either in the presence of DMSO (final 1.2% DMSO) or compound dilution series in DMSO. After 20 minute incubation at room temperature Alpha streptavidin donor beads and AlphaLisa anti-Flag acceptor beads were added to a final concentration of 10 ug/mL each. After three hours equilibration plates were read on an Envision instrument and IC50s calculated using a four parameter non-linear curve fit.

[2] = tested on: IL-6 secretion in LPS-treated THP-1 cells; test: Cell-based IL-6 quantification assay (ELISA, Mesoscale); settings: Homo sapiens, LPS 4 μg/mL, 16 h, normalised to CellTiter-Glo
Method: C. Cell-Based IL-6 Quantification Assay (ELISA, Mesoscale Assay):
100,000 THP-1 cells were seeded in RPMI1640-10% FBS in 96-well plates. LPS (E. Coli Invitrogen) in RPMI-10% FBS at a final concentration of 4 μg/mL was added to the wells and the cells are then incubated in the presence of various concentrations of compounds for 16 h. Plates are spun ([…], 5 min), an aliquot of 25 uL supernatant is transferred in to an ELISA plate (Mesoscale technology, MSD) and the detection of IL-6 is performed using manufacturer's instructions. The amount of cells in each well is assessed using CellTiter-Glo® (Promega). The ratio of ELISA value/CellTiter-Glo value is used to calculate the percent of inhibition of IL-6 secretion.

[3] = tested on: MYC mRNA in Raji (Burkitt lymphoma) cells; test: cMyc RNA quantification assay (QuantiGene), Raji; type: cell-based; settings: Homo sapiens, 4 h
Method: as §1, §2

`Cc1nnc2ccc(NC(C)c3ccccc3)nn12` (racemic) [Compound 1, rac-3-methyl-N-(1-phenylethyl)-[1,2,4]triazolo[4,3-b]pyridazin-6-amine] was tested, and the IC50 [1] was greater than 1000 nM, the IC50 (BRD4(BD1)) was greater than 1000 nM and the IC50 [2] was greater than 1000 nM.

`Cc1nnc2ccc(N(C)C(C)c3ccccc3)nn12` (stereo not shown) [Compound 2, N,3-dimethyl-N-(1-phenylethyl)-[1,2,4]triazolo[4,3-b]pyridazin-6-amine] was tested, and the IC50 (BRD4(BD1)) was 500 to 1000 nM and the IC50 [2] was greater than 1000 nM.

With `Cc1nnc2ccc(N(C)[C@@H](C)c3ccccc3)nn12` [Compound 3, (S)-N,3-dimethyl-N-(1-phenylethyl)-[1,2,4]triazolo[4,3-b]pyridazin-6-amine] the IC50 (BRD4(BD1)) was less than 500 nM and the IC50 [2] was greater than 1000 nM.

With `Cc1nnc2ccc(N(C)[C@H](C)c3ccccc3)nn12` [Compound 4, (R)-N,3-dimethyl-N-(1-phenylethyl)-[1,2,4]triazolo[4,3-b]pyridazin-6-amine] the IC50 (BRD4(BD1)) was greater than 1000 nM.

For `CCNC(=O)Nc1cc(N(C)[C@@H](C)c2ccccc2)nn2c(C)nnc12` [Compound 5, (S)-1-ethyl-3-(3-methyl-6-(methyl(1-phenylethyl)amino)-[1,2,4]triazolo[4,3-b]pyridazin-8-yl)urea], the IC50 (BRD4(BD1)) was less than 500 nM, the IC50 [2] was less than 500 nM and the IC50 [3] was less than 500 nM.

With `Cc1nnc2c(N)cc(N(C)[C@@H](C)c3ccccc3)nn12` [Compound 6, (S)-N^6,3-dimethyl-N^6-(1-phenylethyl)-[1,2,4]triazolo[4,3-b]pyridazine-6,8-diamine] the IC50 (BRD4(BD1)) was less than 500 nM and the IC50 [2] was less than 500 nM.

Compound `Cc1nnc2c(C(N)=O)cc(N(C)[C@@H](C)c3ccccc3)nn12` [Compound 7, (S)-3-methyl-6-(methyl(1-phenylethyl)amino)-[1,2,4]triazolo[4,3-b]pyridazine-8-carboxamide] has an IC50 (BRD4(BD1)) greater than 1000 nM and an IC50 [2] greater than 1000 nM.

Compound `Cc1nnc2c(NC(=O)N(C)C)cc(N(C)[C@@H](C)c3ccccc3)nn12` [Compound 8, (S)-1,1-dimethyl-3-(3-methyl-6-(methyl(1-phenylethyl)amino)-[1,2,4]triazolo[4,3-b]pyridazin-8-yl)urea] has an IC50 (BRD4(BD1)) of less than 500 nM, an IC50 [2] of 500 to 1000 nM and an IC50 [3] greater than 1000 nM.

For `C[C@@H](c1ccccc1)N(C)c1ccc2nnc(C#N)n2n1` [Compound 9, (S)-6-(methyl(1-phenylethyl)amino)-[1,2,4]triazolo[4,3-b]pyridazine-3-carbonitrile], the IC50 [1] was greater than 1000 nM, the IC50 (BRD4(BD1)) was greater than 1000 nM and the IC50 [2] was greater than 1000 nM.

In the case of `Cc1nnc2ccc(N3CCCC3c3ccccc3)nn12` (stereo not shown) [Compound 10, 3-methyl-6-(2-phenylpyrrolidin-1-yl)-[1,2,4]-triazolo[4,3-b]pyridazine], the IC50 (BRD4(BD1)) is reported as greater than 1000 nM.

With `CCOC(=O)Nc1cc(N(C)[C@@H](C)c2ccccc2)nn2c(C)nnc12` [Compound 11] the IC50 (BRD4(BD1)) was less than 500 nM, the IC50 [2] was less than 500 nM and the IC50 [3] was less than 500 nM.

With `CCNC(=O)Nc1cc(N(C)[C@@H](C)c2ccc(F)cc2)nn2c(C)nnc12` [Compound 12] the IC50 [1] was less than 500 nM, the IC50 (BRD4(BD1)) was less than 500 nM and the IC50 [2] was less than 500 nM.

`CCNC(=O)Nc1cc(N(C)[C@@H](C)c2ccc(Cl)cc2)nn2c(C)nnc12` [Compound 13] showed an IC50 [1] of less than 500 nM, an IC50 (BRD4(BD1)) of less than 500 nM and an IC50 [2] of less than 500 nM.

Compound `CCNC(=O)Nc1cc(N(C)[C@@H](C)c2ccccc2)nn2c(C(F)(F)F)nnc12` [Compound 14] has an IC50 [1] of less than 500 nM, an IC50 (BRD4(BD1)) of less than 500 nM and an IC50 [2] of less than 500 nM.
